Assay results as given in US10800815B2, “Kv1.3 potassium channel antagonists” (cgtx-Peptide Development GmbH, priority 2014, dated 2020).

How the values were obtained:
[1] = system: antigen induced arthritis (AIA); assay: Antigen induced arthritis (AIA) rat model, knee joint swelling; type: in vivo; conditions: for reduction of knee swelling relative to the vehicle control group: 24 h after arthritis induction; for difference of absolute increase of knee swelling (induced minus un-induced knee): one day after arthritis induction
[2] = system: white blood cells in peripheral blood; assay: Haematology (WBC, neutrophil granulocytes, lymphocytes) in AIA rats; type: in vivo, rat
Method: For the blood withdrawal the animals were narcotized briefly, the tail was disinfected and the tail vein was punctured with a cannula, 50 μl of blood were withdrawn with a heparin coated pipette and mixed with 5 μl of a stabilising agent (CPD) and 1 μl heparin (1.5 U/μl diluted 1:4 in 0.9% NaCl).
White Blood Cells (WBC) were counted with a Coulter Counter in the automatic mode.
Blood samples were taken regularly for monitoring of hematological parameters. Haematological parameters were assessed in all animals weekly before induction, at day of induction and 10 days after induction (days −21, −14, −7, 0 and 10). […] Absolute counts of white blood cells (WBC), neutrophil granulocytes and lymphocytes were analyzed among others, the last two also stated in percentage of total WBC. EDTA whole blood of seven individuals from both vehicle and cgtx-544 peptide therapy group was measured with Sysmex XT-2000i.
For screening the state of health of all individuals, complete haemograms were used again. EDTA whole blood of seven individuals from both MTX high-dose and low-dose therapy groups were measured with Sysmex XT-2000i.V weekly before induction, at day of induction and 4 and 7 days after induction (day −21, −14, −7, 0, 4 and 7; MTX low-dose therapy group additionally on day −3, when i.v. application started).

Kv1.3 [3] = biological target: T1, Kv1.3 (Homo sapiens, UniProt P22001); assay: Patchliner electrophysiology of cgtx-544(Sing) on Kv1.3 in Baculovirus infected Sf21 cells (Example 8); type: cell-based
Method: (§1) Ion channels were expressed via Baculovirus (Kv1.1-, Kv1.3- and Kv1.5-constructs) infected Sf21 cells or stably transfected CHO cells (Kv1.2) as described in Examples 1, 2, and 4. Electrophysiological analysis was performed on the automated patch clamp device “Patchliner” (Nanion Technologies, Munich, Germany). The Patchliner is based on a planary patch clamp method borosilicate glass chip (NPC-16) instead of a glass pipettes. The Patchliner is able to record four cells at the same time. All channel recordings were made in the whole cell mode. Data recordings were performed with the PatchMaster software (HEKA Electronics, Lambrecht/Pfalz, Germany). Visualization of experimental results was realized with IGOR software (Wavemetrics, USA). Average data are presented as mean±standard error of the mean (SEM).
(§2) Test compounds were used as concentrated stock solutions (mostly 1.5 μg/μl). Stock solutions were diluted in buffer to the required final concentrations.
After chemical synthesis (see Example 7) the peptide was folded by oxidation with atmospheric oxygen and the correctly folded (biologically active) peptide fraction was purified by preparative HPLC. This purified cgtx-544 peptide was designated cgtx-544(Sing) for singular peak.

Kv1.3 [4] = biological target: T1, Kv1.3; assay: Kv1.3 block with prolonged incubation times; type: cell-based; conditions: incubation about 20 min, after folding and purification
Kv1.1 = biological target: T2, Kv1.1 (Homo sapiens, UniProt Q09470); assay: Patchliner electrophysiology on Kv1.1 in Baculovirus infected Sf21 cells (Example 8); type: cell-based
T2 construct: expressed in transfected cells; host or cells: Sf21 insect cells, baculovirus infection
Method: as §1, §2

Kv1.2 = biological target: T3, Kv1.2 (Homo sapiens, UniProt P16389); assay: Patchliner electrophysiology on Kv1.2 in stably transfected CHO cells (Example 8); type: cell-based
T3 construct: expressed in transfected cells; host or cells: CHO cells, stably transfected
Method: as §1, §2

Kv1.5 = biological target: T4, Kv1.5 (Homo sapiens, UniProt P22460); assay: Patchliner electrophysiology on Kv1.5 in Baculovirus infected Sf21 cells (Example 8); type: cell-based; conditions: 10 μM solution
T4 construct: expressed in transfected cells; host or cells: Sf21 insect cells, baculovirus infection

Kv1.3 [5] = biological target: T1, Kv1.3; assay: Decay of cgtx-544(Sing) in human blood serum at 37° C., blocking activity on Kv1.3 (Example 9); type: in vitro ADME
Method: FIG. 33 Decay of cgtx-544(Sing) in human serum at 37° C. A known amount of cgtx-544(Sing) was added to human blood serum from 3 blood donors and incubated at 37° C. for a period of 57 days. The blocking activity of the peptide was measured on Kv1.3 channels over this period. The peptide remains stable for 16 h, and it can still be detected after 45 days. At 57 days the blocking effect is no longer visible. Decay is depicted as the reduction of concentration of cgtx-544 (Sing) as determined by: C(t)=IC50 (t0)/IC50(t).C0. The decay is fitted by a simple decay curve: C (t)=C0.2(−t/t1/2), where C0 is the initial concentration of peptide in solution, t0 is the 0 min incubation at 37° C. point, and t1/2 is the half-life.
Further to the experiments described in Example 3, the stability of the cgtx-544 peptide was tested in blood serum samples under in vitro conditions. Thus, the stability of cgtx-544(Sing) in human blood serum was determined by the addition of a known quantity of cgtx-544(Sing) to human blood serum and a subsequent incubation at 37° C. The blocking activity of ctx-544(Sing) was measured on Kv1.3 channels over a period of 57 days. cgtx-544(Sing) is extremely stable in human blood serum. Its activity remains constant for at least 16 hours, and decays slowly until no more peptide blocking effect is detectable after 57 days.

in vivo = type: in vivo; conditions: rat
Method: FIG. 34 Decrease of cgtx-544(Sing) in the serum of treated rats after i.v. injection. The concentration of unbound circulating cgtx-544(Sing) was calculated on the basis of a standard curve. Standard error of the mean is depicted in the error bars (n=6).
Rats received i.v. injections of cgtx-544(Sing) (750 μg/kg BW). Blood was withdrawn at time points 0, 1, 10 and 60 minutes. Subsequently, serum was prepared from blood samples. The cgtx-544 content in these samples was analyzed electrophysiologically by measuring the blocking effect on Kv1.3 channels expressed in CHO cells. […] In order to study the amount of unbound cgtx-544(Sing) in the rat, the amount of cgtx-544(Sing) present in the circulating blood at the time points referred above was calculated through a calibration curve. This calibration curve was obtained by adding known quantities of cgtx-544(Sing) to blood serum and subsequent electrophysiological measurements on Kv1.3 channels. The block of Kv1.3 currents by these spiked samples was similar to that obtained with cgtx-544(Sing) in the absence of serum (data not shown).

[6] = Solubility and stability in 0.9% NaCl solution; type: physicochemical
Method: This peptide solution is being folded by oxidation (formation of disulfide bonds). The folding method is based on bond formation in phosphate buffer at pH 8.3 in the presence of atmospheric oxygen. […] Thus, after the folding reaction the active peptide (retention time 12.77 min) was purified from the cgtx-544 mixture of folded and partially folded peptides by preparative HPLC. After this purification step the active peptide—referred to as cgtx-544(Sing)—usually has an estimated purity of more than 95%.

[7] = high-dose 1 mg/kg 1× weekly s.c.
[8] = low-dose 100 μg/kg 1× daily i.v.
[9] = high-dose 1 mg/kg 1× weekly s.c., day 7
[10] = high-dose 1 mg/kg 1× weekly s.c., day −7
[11] = high-dose 1 mg/kg 1× weekly s.c., seven days after induction
[12] = low-dose 100 μg/kg 1× daily i.v., day 7

T1 sequence (P22001 whole entry): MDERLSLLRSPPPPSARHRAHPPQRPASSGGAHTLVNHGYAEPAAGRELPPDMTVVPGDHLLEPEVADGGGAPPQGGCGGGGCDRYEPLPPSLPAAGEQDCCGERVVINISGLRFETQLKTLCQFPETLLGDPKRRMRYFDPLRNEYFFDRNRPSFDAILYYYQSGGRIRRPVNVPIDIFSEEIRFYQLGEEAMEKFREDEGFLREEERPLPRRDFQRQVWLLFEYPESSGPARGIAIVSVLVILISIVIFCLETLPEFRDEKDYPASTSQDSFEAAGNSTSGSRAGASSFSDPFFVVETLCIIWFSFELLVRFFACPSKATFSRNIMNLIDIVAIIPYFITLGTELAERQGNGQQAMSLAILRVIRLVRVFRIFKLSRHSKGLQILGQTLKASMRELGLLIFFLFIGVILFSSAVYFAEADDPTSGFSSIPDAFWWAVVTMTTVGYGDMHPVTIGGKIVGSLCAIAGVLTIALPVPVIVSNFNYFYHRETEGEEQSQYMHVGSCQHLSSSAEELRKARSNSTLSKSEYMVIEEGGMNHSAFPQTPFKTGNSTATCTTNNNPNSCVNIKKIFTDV
T3 sequence (P16389 whole entry): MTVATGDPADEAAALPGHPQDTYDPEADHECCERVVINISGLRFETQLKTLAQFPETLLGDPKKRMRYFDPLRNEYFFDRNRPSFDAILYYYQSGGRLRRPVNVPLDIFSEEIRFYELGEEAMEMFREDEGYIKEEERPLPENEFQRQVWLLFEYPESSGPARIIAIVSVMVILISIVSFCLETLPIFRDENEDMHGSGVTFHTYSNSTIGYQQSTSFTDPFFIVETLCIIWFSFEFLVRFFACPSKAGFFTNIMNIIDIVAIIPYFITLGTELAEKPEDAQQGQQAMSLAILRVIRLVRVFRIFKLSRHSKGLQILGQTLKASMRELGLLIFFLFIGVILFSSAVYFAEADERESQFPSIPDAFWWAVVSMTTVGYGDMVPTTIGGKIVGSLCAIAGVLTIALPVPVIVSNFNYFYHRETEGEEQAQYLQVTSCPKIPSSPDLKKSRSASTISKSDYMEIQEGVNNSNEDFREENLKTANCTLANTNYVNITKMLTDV
T4 sequence (P22460 whole entry): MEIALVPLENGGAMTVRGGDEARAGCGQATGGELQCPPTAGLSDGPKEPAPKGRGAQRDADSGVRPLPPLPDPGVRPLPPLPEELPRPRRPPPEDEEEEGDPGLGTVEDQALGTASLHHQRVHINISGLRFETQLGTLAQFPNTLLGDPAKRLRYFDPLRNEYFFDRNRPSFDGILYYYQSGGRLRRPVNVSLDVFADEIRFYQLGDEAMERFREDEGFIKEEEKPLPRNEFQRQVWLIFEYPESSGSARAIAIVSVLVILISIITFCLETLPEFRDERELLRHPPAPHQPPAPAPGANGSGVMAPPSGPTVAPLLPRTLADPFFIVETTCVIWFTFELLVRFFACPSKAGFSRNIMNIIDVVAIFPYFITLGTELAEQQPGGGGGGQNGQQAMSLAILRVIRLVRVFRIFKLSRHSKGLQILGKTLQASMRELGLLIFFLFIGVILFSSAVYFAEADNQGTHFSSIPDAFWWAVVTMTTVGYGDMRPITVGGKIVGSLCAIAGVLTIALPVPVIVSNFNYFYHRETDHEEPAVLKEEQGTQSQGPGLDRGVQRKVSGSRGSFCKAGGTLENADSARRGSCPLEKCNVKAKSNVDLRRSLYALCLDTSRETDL
T2 sequence (Q09470 whole entry): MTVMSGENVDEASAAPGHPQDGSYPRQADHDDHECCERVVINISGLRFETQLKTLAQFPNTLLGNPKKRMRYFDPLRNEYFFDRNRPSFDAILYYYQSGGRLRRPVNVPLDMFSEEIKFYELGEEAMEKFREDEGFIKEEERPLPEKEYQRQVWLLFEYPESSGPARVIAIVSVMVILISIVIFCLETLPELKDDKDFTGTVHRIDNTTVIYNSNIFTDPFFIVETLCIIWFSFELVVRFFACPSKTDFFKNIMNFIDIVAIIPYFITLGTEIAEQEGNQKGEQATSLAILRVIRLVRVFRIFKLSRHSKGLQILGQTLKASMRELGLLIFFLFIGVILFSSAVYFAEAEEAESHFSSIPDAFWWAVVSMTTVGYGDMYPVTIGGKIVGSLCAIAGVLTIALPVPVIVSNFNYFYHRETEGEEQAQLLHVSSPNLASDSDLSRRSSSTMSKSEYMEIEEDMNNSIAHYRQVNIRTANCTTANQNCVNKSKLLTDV

**Q.** Which “relative difference of knee swelling (normalized)” value [1, 7] does the source give for `CN(Cc1cnc2nc(N)nc(N)c2n1)c1ccc(C(=O)N[C@@H](CCC(=O)O)C(=O)O)cc1` [MTX, Methotrexate] here?
**A.** Its value is 0.39±0.16.

**Q.** What about the “reduction of knee swelling relative to the vehicle control group” value [1, 7] of the same compound?
**A.** Its value is 15%.

**Q.** What about the “difference of absolute increase of knee swelling (induced minus un-induced knee)” value [1, 7] of the same compound?
**A.** Its value is 3.17±1.26 mm.

**Q.** And the “relative difference of knee swelling (normalized)” value [1, 8]?
**A.** The value was 0.43±0.11.

**Q.** What about the “reduction of knee swelling relative to the vehicle control group” value [1, 8] of the same compound?
**A.** Its value is 7%.

**Q.** And the “difference of absolute increase of knee swelling (induced minus un-induced knee)” value [1, 8]?
**A.** Its value is 3.45±0.87 mm.

**Q.** What about the WBC count [2, 9] of the same compound?
**A.** Its WBC count is 14.68±2.15 ×10^3/μl.

**Q.** What about the absolute lymphocyte count [2, 9] of the same compound?
**A.** Its absolute lymphocyte count is 11.38±1.15 ×10^3/μl.

**Q.** And the lymphocyte percentage [2, 9]?
**A.** Its lymphocyte percentage is 78.16±7.20 % of WBC.

**Q.** What about the WBC count [2, 10] of the same compound?
**A.** Its WBC count is 20.79±5.96 ×10^3/μl.

**Q.** And the absolute lymphocyte count [2, 10]?
**A.** The absolute lymphocyte count was 11.68±2.8 ×10^3/μl.

**Q.** What about the “absolute neutrophil granulocyte count” value [2, 10] of the same compound?
**A.** Its value is 7.54±3.19 ×10^3/μl.

**Q.** What about the lymphocyte percentage [2, 10] of the same compound?
**A.** The lymphocyte percentage was 57.01±6.45 % of WBC.

**Q.** What about the relative neutrophils [2, 10] of the same compound?
**A.** Its relative neutrophils is 35.46±7.08 % of WBC.

**Q.** What about the “absolute neutrophil granulocyte count” value [2, 11] of the same compound?
**A.** Its value is 1.94±1.1 ×10^3/μl.

**Q.** What about the relative neutrophils [2, 11] of the same compound?
**A.** The relative neutrophils was 12.63±6.1 % of WBC.

**Q.** What about the WBC count [2, 12] of the same compound?
**A.** The WBC count was 6.63±1.37 ×10^3/μl.

**Q.** And the absolute lymphocyte count [2, 12]?
**A.** Its absolute lymphocyte count is 6.14±1.11 ×10^3/μl.

**Q.** What about the “absolute neutrophil granulocyte count” value [2, 12] of the same compound?
**A.** Its value is 0.33±0.36 ×10^3/μl.

**Q.** And the “decrease of WBC counts compared to the beginning of the experiment” value [2, 12]?
**A.** The value was about 50%.

**Q.** And the lymphocyte percentage [2, 12]?
**A.** Its lymphocyte percentage is 93.13±4.66 % of WBC.

**Q.** What about the relative neutrophils [2, 12] of the same compound?
**A.** Its relative neutrophils is 4.41±4.63 % of WBC.

**Q.** And the “effect in the haemogram compared to the vehicle control group” value ([2]; low-dose treated individuals, seven days after arthritis induction)?
**A.** The value was “reduction of WBC count, neutrophil granulocyte count and lymphocyte count”.

**Q.** With `CC[C@H](C)[C@H](NC(=O)[C@@H](N)[C@@H](C)O)C(=O)N[C@H](C(=O)N[C@@H](CC(N)=O)C(=O)N[C@H](C(=O)N[C@@H](CCCCN)C(=O)N[C@H]1CSSC[C@@H]2NC(=O)[C@H](CCCCN)NC(=O)CNC(=O)[C@H](Cc3ccc(O)cc3)NC(=O)[C@@H]3CCCN3C(=O)[C@@H]3CSSC[C@@H](C(=O)O)NC(=O)[C@H](CCCNC(=N)N)NC(=O)[C@H](CC(N)=O)NC(=O)[C@@H]4CSSC[C@H](NC(=O)[C@@H]5CCCN5C(=O)[C@@H]5CCCN5C(=O)[C@H](CC(C)C)NC(=O)[C@H](CSSC[C@H](NC(=O)[C@H](CCCCN)NC(=O)[C@H](CCCNC(=N)N)NC(=O)[C@H](CC(N)=O)NC(=O)[C@H](CCSC)NC2=O)C(=O)N[C@@H](CCCCN)C(=O)N4)NC(=O)[C@H](CCC(N)=O)NC(=O)[C@H](CCCCN)NC(=O)[C@@H]2CCCN2C(=O)[C@H](CO)NC(=O)[C@H]([C@@H](C)O)NC1=O)C(=O)N[C@@H](CCCCN)C(=O)N[C@@H](C)C(=O)N[C@@H](CCC(N)=O)C(=O)N[C@@H]([C@@H](C)O)C(=O)NCC(=O)N3)C(C)C)[C@@H](C)CC` [cgtx-544(Sing)] as the compound, how does the IC50 (Kv1.3 [3]) read?
**A.** Its IC50 is 6.9 nM.

**Q.** What about the IC50 (Kv1.3 [4]) of the same compound?
**A.** The IC50 was about 0.9 nM.

**Q.** What about the IC50 (Kv1.1) of the same compound?
**A.** The IC50 was about 6000 nM.

**Q.** What about the IC50 (Kv1.2) of the same compound?
**A.** Its IC50 is 2500 nM.

**Q.** And the “effect on Kv1.2 currents” value (Kv1.2; 100 nM solution, stably transfected CHO cells)?
**A.** Its value is “did not alter”.

**Q.** What about the “effect on Kv1.2 currents” value (Kv1.2; concentrations >1 μM) of the same compound?
**A.** Its value is “only slightly reduced currents”.

**Q.** And the “reduction of Kv1.5 currents” value (Kv1.5)?
**A.** The value was “did not induce a significant reduction”.

**Q.** What about the “time after which the peptide can still be detected” value (Kv1.3 [5]; human blood serum, 37° C.) of the same compound?
**A.** Its value is 45 days.

**Q.** What about the “time at which blocking effect is no longer visible” value (Kv1.3 [5]; human blood serum, 37° C.) of the same compound?
**A.** Its value is 57 days.

**Q.** What about the “period for which 50% activity was retained” value (Kv1.3 [5]; human serum at 37° C.) of the same compound?
**A.** Its value is 5 days.

**Q.** And the half-life (in vivo; in vivo, iv, 750 ug/kg, 750 μg/kg BW)?
**A.** Its half-life is about 26 min.

**Q.** And the “blocking activity of serum sample relative to the 1 minute sample” value (in vivo; 750 μg/kg BW i.v., 60 minutes)?
**A.** Its value is 10%.

**Q.** And the “approximate concentration in the circulating blood” value (in vivo; i.v., 750 μg/kg BW)?
**A.** The value was about 62 nM.

**Q.** And the solubility ([6]; 0.9% NaCl solution)?
**A.** The solubility was “highly soluble”.

**Q.** What about the stability in solution ([6]; 0.9% NaCl solution at RT and 4° C.) of the same compound?
**A.** Its stability in solution is “up to several weeks”.
